Residue numbers refer to the chain shown, from its start.
Columns and labels:
PfENT1 I418M = target: T1, PfENT1 I418M (Plasmodium falciparum, UniProt Q8IDM6, I418M); assay: [3H]uridine uptake inhibition by purines in PfENT1-SNP-expressing yeast; assay type: cell-based
T1 sequence (Q8IDM6 1-422 I418M): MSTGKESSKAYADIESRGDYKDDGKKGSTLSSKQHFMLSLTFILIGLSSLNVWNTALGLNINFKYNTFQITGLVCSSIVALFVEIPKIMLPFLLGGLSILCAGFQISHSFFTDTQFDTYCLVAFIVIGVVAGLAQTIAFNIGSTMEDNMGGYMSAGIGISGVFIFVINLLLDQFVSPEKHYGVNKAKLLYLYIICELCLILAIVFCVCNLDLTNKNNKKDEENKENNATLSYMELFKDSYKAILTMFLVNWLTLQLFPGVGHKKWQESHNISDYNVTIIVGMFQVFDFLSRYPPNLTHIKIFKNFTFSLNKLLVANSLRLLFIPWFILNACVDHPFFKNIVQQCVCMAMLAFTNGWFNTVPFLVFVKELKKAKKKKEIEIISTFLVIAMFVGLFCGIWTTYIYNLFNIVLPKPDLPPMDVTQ

[1] = target: T2, PfENT1 F36S/V129I/L133F/P417L (Quad) (Plasmodium falciparum, UniProt Q8IDM6, F36S/L133F/P417L/V129I); assay: as above; assay type: cell-based
T2 sequence (Q8IDM6 1-422 F36S/V129I/L133F/P417L): T1 sequence (Q8IDM6 1-422 I418M) with F36S, V129I, L133F, P417L, M418I

Row | Compound | IC50 (PfENT1 I418M) [µM] | IC50 [1] [µM]
1 | Nc1ncnc2nc[nH]c12 [Adenine, adenine] | 221 ± 36 | 362 ± 56
2 | O=c1[nH]cnc2nc[nH]c12 [Hypoxanthine, hypoxanthine] | 145 ± 7 | 108 ± 5
3 | OC[C@H]1O[C@@H](n2cnc3c(O)ncnc32)[C@H](O)[C@@H]1O [Inosine, inosine] | 12 ± 2 | 12 ± 1
